From paper PMC7655571, “Acetylcholinesterase inhibition in electric eel and human donor blood: an in vitro approach to investigate interspecies differences and human variability in toxicodynamics” (Archives of Toxicology, 2020)
Several values for one entry are separate records, joined by “and”; a condition that tells them apart may be missing. Equal entries are not always repeated. Entries after “also recorded” stand apart in the source; their conditions may differ. Where two headings read alike, the source gives them in different places.

What was measured:
[1] = target: T1, Electrophorus electricus AChE (Electrophorus electricus, UniProt O42275); assay: AChE inhibition, electric eel enzyme (Ellman method); assay type: biochemical; details: for AChE inhibition (in words), electric eel: concentration–response curves
T1 construct: purchased Sigma-Aldrich C2888
T1 sequence (O42275 24-633): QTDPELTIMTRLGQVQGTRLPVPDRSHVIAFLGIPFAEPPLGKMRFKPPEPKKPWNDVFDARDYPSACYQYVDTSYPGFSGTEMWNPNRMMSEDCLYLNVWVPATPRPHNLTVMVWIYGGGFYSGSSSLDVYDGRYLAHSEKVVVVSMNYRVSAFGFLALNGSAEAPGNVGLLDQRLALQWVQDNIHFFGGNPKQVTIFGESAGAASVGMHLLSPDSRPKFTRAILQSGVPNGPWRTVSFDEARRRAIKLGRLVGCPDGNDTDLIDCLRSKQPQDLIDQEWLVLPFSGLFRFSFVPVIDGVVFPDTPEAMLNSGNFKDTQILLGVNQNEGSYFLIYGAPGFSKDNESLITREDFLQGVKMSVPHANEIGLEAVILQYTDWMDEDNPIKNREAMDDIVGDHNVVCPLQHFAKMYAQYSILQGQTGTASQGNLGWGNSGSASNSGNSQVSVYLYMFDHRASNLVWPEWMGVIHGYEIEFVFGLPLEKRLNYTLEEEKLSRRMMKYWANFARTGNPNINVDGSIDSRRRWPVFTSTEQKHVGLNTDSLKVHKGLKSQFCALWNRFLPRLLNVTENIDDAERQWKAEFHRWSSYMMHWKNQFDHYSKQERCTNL
Protocol: (§1) A 1.3 mM DTNB buffer and a 6 mM acetylthiocholine buffer were prepared in the 50 mM sodium phosphate buffer, a 3 mM ethopropazine buffer was prepared in sterile water and all were stored in aliquots at − 20 °C. A 600 µM ethopropazine buffer was prepared just before use in sodium phosphate buffer.
(§2) Stock solutions were diluted in methanol to create a dosing series and also stored at − 20 °C. These series were 100× diluted in sodium phosphate buffer to get 1% methanol solutions, resulting in a final concentration of 0.1% methanol in the wells.
AChE from Electrophorus electricus (electric eel) and freshly drawn (maximum one-day-old), venous EDTA whole blood samples from healthy human donors were used. […] Following incubation for 30 min at room temperature, electric eel AChE was used directly in the enzyme activity assay (see “Enzyme activity assay”). For human blood AChE, 50 µL of the blood was added to a new 48-wells plate and 950 µL Triton buffer was added to these wells (20× dilution).
Briefly, 20 µL of electric eel AChE or 20 µL of Triton-diluted blood (either exposed or unexposed) and 20 µL ethopropazine were added to 460 µL of DTNB buffer in a 48-wells plate. […] Blank wells contained only DTNB buffer and unexposed enzyme/blood to correct for any background absorbance. To these wells, 100 µL sodium phosphate buffer was added instead of acetylthiocholine after incubation. The final concentration of electric eel AChE was 4 mU/well.
All in vitro data were analysed in GraphPad Prism (version 8.4) and are expressed as mean ± standard deviation (SD). For data analysis, vehicle control (0.1% methanol) was set at 100% for both human and electric eel AChE. For human blood, the technical replicates were averaged to perform statistical tests. […] The electric eel AChE data consisted of 3 technical replicates per experiment and 3–4 independent biological replicates.

[2] = measured or estimated in plasma following human exposure, cited from earlier work
[3] = target: T2, human blood AChE (Homo sapiens, UniProt P22303); assay: AChE inhibition in human donor whole blood (Ellman method); assay type: biochemical; details: for IC50: IC50 Human; for AChE inhibition (in words), human blood: concentration–response curves
T2 construct: 90 µL undiluted blood in a 48-wells plate; from tissue; host or cells: venous EDTA whole blood from healthy human donors, lysed and diluted in Triton X-100 buffer
T2 sequence (P22303 32-617 isoform P22303-2 limits assumed): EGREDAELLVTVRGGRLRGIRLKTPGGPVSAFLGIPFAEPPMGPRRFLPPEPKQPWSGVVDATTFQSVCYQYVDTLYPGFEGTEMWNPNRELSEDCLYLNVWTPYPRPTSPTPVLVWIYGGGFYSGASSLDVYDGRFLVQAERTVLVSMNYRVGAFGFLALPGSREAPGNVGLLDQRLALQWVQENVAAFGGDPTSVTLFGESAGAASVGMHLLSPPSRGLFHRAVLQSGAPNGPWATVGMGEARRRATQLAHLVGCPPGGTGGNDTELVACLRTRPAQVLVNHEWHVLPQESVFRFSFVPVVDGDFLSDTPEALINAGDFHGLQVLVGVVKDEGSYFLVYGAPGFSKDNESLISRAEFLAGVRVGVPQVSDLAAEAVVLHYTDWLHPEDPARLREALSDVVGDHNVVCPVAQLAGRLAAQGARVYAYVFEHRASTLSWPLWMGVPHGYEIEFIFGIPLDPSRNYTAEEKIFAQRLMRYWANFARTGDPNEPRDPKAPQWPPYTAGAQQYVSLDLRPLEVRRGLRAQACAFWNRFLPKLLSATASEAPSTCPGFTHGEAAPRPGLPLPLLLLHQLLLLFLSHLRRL
Protocol: as §1, §2
AChE from Electrophorus electricus (electric eel) and freshly drawn (maximum one-day-old), venous EDTA whole blood samples from healthy human donors were used. […] For human blood AChE, 50 µL of the blood was added to a new 48-wells plate and 950 µL Triton buffer was added to these wells (20× dilution).
Briefly, 20 µL of electric eel AChE or 20 µL of Triton-diluted blood (either exposed or unexposed) and 20 µL ethopropazine were added to 460 µL of DTNB buffer in a 48-wells plate. […] Blank wells contained only DTNB buffer and unexposed enzyme/blood to correct for any background absorbance. To these wells, 100 µL sodium phosphate buffer was added instead of acetylthiocholine after incubation.
Unexposed, diluted blood (100 µL) was added to a 96-wells plate and 100 µL transformation agent (20 mg potassium ferricyanide, 5 mg potassium cyanide, 100 mg sodium bicarbonate and 50 µL Triton X-100 in 100 mL water) was added. […] Blank wells contained transformation reagent and buffer to correct for any background absorbance.
All in vitro data were analysed in GraphPad Prism (version 8.4) and are expressed as mean ± standard deviation (SD). For data analysis, vehicle control (0.1% methanol) was set at 100% for both human and electric eel AChE. For human blood, the technical replicates were averaged to perform statistical tests. Unpaired t tests were used to test for differences between men and women and a one-way ANOVA followed by a post-hoc Tukey test was used to compare data between different age groups (group 1: ≥ 60 years; group 2: 31–60 years; group 3: ≤ 30 years).

[4] = system: human AChE (recombinant enzyme); details: source: recombinant enzyme; ref Li et al. ([2019]); cited from earlier work
[5] = system: electric eel AChE; details: cited from earlier work
[6] = whole blood, average of 20 donors

SMILES: COP(=S)(OC)SCN1C(=O)c2ccccc2C1=O [PM, phosmet]
- IC50 [1]: > 1400 nM
- AChE inhibition (in words), electric eel [1]: do not show any AChE inhibition; also recorded: did not inhibit AChE
- AChE inhibition (in words), electric eel ([1]; listed as phosmet): did not show inhibition
- In vivo concentration ([2]; ref Santori et al. ([2020])): ≤ 50 µM
- IC50 [3, 6]: > 30000 nM
- AChE inhibition (in words), human blood [3]: do not inhibit AChE activity; also recorded: do not show any AChE inhibition; also recorded: did not inhibit AChE
- AChE inhibition (in words), human blood ([3]; listed as phosmet): did not show inhibition
- IC50 Value Human [4]: Inactive

SMILES: CCOP(=O)(OCC)Oc1nc(Cl)c(Cl)cc1Cl [CPO, Chlorpyrifos-oxon]
- IC20 ([1]; 30 min exposure, room temperature): 10 nM
- AChE inhibition (in words), electric eel [1]: show inhibition of AChE
- IC50 ([5]; ref Jett et al. ([1999])): 10 nM
- IC50 ([5]; ref Meijer et al. ([2014])): 10 nM
- IC50 ([5]; ref Čolović et al. ([2011])): 30 nM
- In vivo concentration ([2]; ref Eyer et al. ([2009])): ≤ 0.06 µM
- In vivo concentration ([2]; ref Heilmair et al. ([2008])): ≤ 0.02 µM
- AChE inhibition (in words), human blood [3]: show inhibition of AChE
- IC20 ([3]; donor 3, read-out: IC20 Value): 100 nM
- IC20 ([3]; donor 4, read-out: IC20 Value): 100 nM
- IC20 ([3]; donor 5, read-out: IC20 Value): 100 nM
- IC20 ([3]; donor 8, read-out: IC20 Value): 100 nM
- IC20 ([3]; donor 11, read-out: IC20 Value): 100 nM
- IC20 ([3]; donor 15, read-out: IC20 Value): 100 nM
- IC20 ([3]; donor 17, read-out: IC20 Value): 100 nM
- concentration at which AChE activity is inhibited completely ([3]; human donor blood): ≥ 2.9 µM
- Coefficient of variation (CV) C1 Human ([3]; human variability in AChE inhibition, concentration level C1 (Table S2)): 5.5%
- Coefficient of variation (CV) C2 Human ([3]; human variability in AChE inhibition, concentration level C2 (Table S2)): 6.0%
- Coefficient of variation (CV) C3 Human ([3]; human variability in AChE inhibition, concentration level C3 (Table S2)): 12%
- Coefficient of variation (CV) C4 Human ([3]; human variability in AChE inhibition, concentration level C4 (Table S2)): 99%
- Human uncertainty factor (UF) UF97.5 ([3]; interindividual differences, concentration closest to the IC20, 95% CI in brackets): 2.2 and 2.2 [1.9–2.7]
- IC20 ([3]; whole blood, average of 20 donors, read-out: IC20 Human): 170 nM

SMILES: CCOP(=S)(OCC)Oc1cc(C)nc(C(C)C)n1 [DZN, diazinon]
- IC50 [1]: > 8500 nM
- AChE inhibition (in words), electric eel [1]: do not show any AChE inhibition; also recorded: did not inhibit AChE
- AChE inhibition (in words), electric eel ([1]; listed as diazinon): did not show inhibition
- IC50 ([5]; ref Assis et al. ([2012])): 300 nM
- IC50 ([5]; ref Čolović et al. ([2011])): > 200000 nM
- In vivo concentration ([2]; ref Buratti et al. ([2003])): ≤ 10 µM
- IC50 [3, 6]: > 10000 nM
- AChE inhibition (in words), human blood [3]: do not inhibit AChE activity; also recorded: do not show any AChE inhibition; also recorded: did not inhibit AChE
- AChE inhibition (in words), human blood ([3]; listed as diazinon): did not show inhibition
- IC50 [4]: 38000 nM
